In patent publication US11629359B2, “Plasma membrane intrinsic aquaporin for absorbing and transporting neonicotinoid insecticides, and coding gene and use therefor” (JIANGSU ACADEMY OF ARGRICULTURAL SCIENCES, priority 2020, dated 2023):

Key:
Chinese cabbage plants = settings: 2 mg/L in Hoagland nutrient solution, mercuric chloride and glycerol of different concentrations, 48 h
[1] = tested on: Saccharomyces cerevisiae INVSc1 (pYES2); assay: Thiamethoxam content of control yeast strain; format: cell-based; settings: 30° C., 6 h
From the text: (§1) The BraPIP2;1 gene cloned in Example 1 was constructed into the Saccharomyces cerevisiae overexpression vector pYES2 (purchased from Clotech) referring to (He Lin, Jiang Lili, Wang Yucheng, Analysis of the stress tolerance of Tamarix thioredoxin peroxidase (ThPrx1) gene transformed into yeast, Journal of Northeast Forestry University, 2011, Vol. 39. No. 4, 101-104), and the constructed recombinant plasmid was named pYES2-BraPIP2;1. The pYES2-BraPIP2;1 and an empty vector pYES2 were transformed into Saccharomyces cerevisiae INVSc1 by lithium acetate precipitation. The recombinant yeasts were named INVSc1 (pYES2-BraPIP2;1) and INVSc1 (pYES2), respectively.
(§2) Induction of recombinant strains: Single colonies of the control yeast INvsc1 (pYES2) and the recombinant yeast INvsc1 (pYES2-BraPIP2;1) were picked, inoculated in an SC-U liquid medium (with glucose of a final concentration of 2%) respectively, and incubated at 30° C. for 24 h on a shaker. The OD600 value is measured, and the amount of bacterial solution required is calculated such that the OD600 of bacteria in 10 ml of induction medium (SC-U+2% galactose) is 0.4. Induce expression was carried out at 30° C. for 24 h. The OD600 value was measured again, and the amount of bacterial solution required was calculated. […]

[2] = tested on: Saccharomyces cerevisiae INVSc1 (pYES2-BraPIP2;1); assay: Growth of recombinant yeast strains under thiamethoxam stress; format: cell-based; settings: thiamethoxam 10-1600 mg/L, stress at 30° C. for 72 h
From the text: as §1, §2

BraPIP2;1 = assay: Response of BraPIP2;1 gene expression to thiamethoxam (quantitative RT-PCR); format: in vivo, Chinese cabbage; settings: 10 mg/L thiamethoxam, 6 hours and 24 hours, p<0.001
Experimental: Seedlings of Chinese cabbage with the same growth condition were put in a Hoagland's nutrient solution containing 10 mg/L thiamethoxam (the Hoagland's nutrient solution was purchased from Beijing Coolaber Technology Co., Ltd.), and treated in the Hoagland's nutrient solution for 6 and 24 hours (treatment group).
At the same time, a Hoagland's nutrient solution without thiamethoxam was used as the control group.
Treated root and aboveground tissue RNA of two groups was extracted respectively, the 1st strand cDNA was obtained by reverse transcription as a template, specific expression primers were designed based on the cDNA sequence of BraPIP2;1, the Chinese cabbage Tublin was used as an internal reference, and the expression of the gene transcription level was detected by quantitative RT-PCR.
The quantification instrument is 7500 Real Time PCR System (Applied Biosystem), and a qPCRT system was configured according to the instructions of a kit 2×TSINGKE Master qPCR Mix (Tsingke Biotechnology Co., Ltd.). The PCR program is: pre-denaturation at 95° C. for 10 min, at 95° C. for 15s, and at 60° C. for 20 s, for 40 cycles.

[3] = tested on: BraPIP2;1 overexpression Arabidopsis thaliana; assay: Main root length of BraPIP2;1 transgenic Arabidopsis thaliana under thiamethoxam; format: in vivo; settings: 1/2MS media with 10 and 50 mg/L thiamethoxam, 20 days
From the text: (§3) The BraPIP2;1 gene cloned in Example 1 was constructed into the plant binary overexpression vector pCAMBIA2301 (purchased from Clotech). By the Agrobacterium tumefaciens-mediated method (Valvekens, D., van Montagu, M., and Lijsebettens, M. V. (1988). Agrobacterium tumefaciens-mediated transformation of Arabidopsis thaliana root explants by using kanamycin selection. Proc. Natl. Acad. Sci. USA 85, 5536-5540.), the inflorescence of wild-type Arabidopsis thaliana Col-0 (purchased from ATCC, USA) was infected with the constructed overexpression vector. Through screening (resistance pure line seedlings were screened on a 1/2MS plate containing 50 μg/mL kanamycin), BraPIP2;1 overexpression Arabidopsis thaliana pure line materials BraPIP2;1#3 and BraPIP2;1#5 were identified and obtained.
The pure line seeds of the BraPIP2;1#3 and BraPIP2;1#5 obtained in the previous transgenic experiment and a wild-type Col-0 material (WT) were germinated on a 1/2MS medium respectively, and then transferred to 1/2MS media (Qingdao Hopebio Co., Ltd., Item No. HB8469-12, PH=5.6) containing 10 and 50 mg/L thiamethoxam respectively. After 20 days, the growth of the seedlings was observed and the main root length was measured.

[4] = tested on: Saccharomyces cerevisiae INVSc1 (pYES2-BraPIP2;1); assay: Thiamethoxam content of recombinant yeast strain; format: cell-based; settings: 30° C., 6 h
From the text: as §1, §2

[5] = tested on: BraPIP2;1 overexpression Arabidopsis thaliana; assay: Thiamethoxam content of BraPIP2;1 transgenic Arabidopsis thaliana plants; format: in vivo; settings: soil containing 10 mg/L thiamethoxam, 20 days
From the text: as §3
In addition, germinated seedlings of the same size were transplanted into soil containing 10 mg/L thiamethoxam, and after 20 days of culture, the root and aboveground samples of the transgenic Arabidopsis thaliana and the control were harvested respectively, washed with deionized water, and weighed.

## CN1CCCC1c1cccnc1 (stereo not drawn) [nicotine]
Chinese cabbage plants
  content of the compound in the plants after water channel inhibitors were added: did not change significantly

## CN1COCN(Cc2cnc(Cl)s2)/C1=N\[N+](=O)[O-] [thiamethoxam]
[1]; 10 mg/L thiamethoxam
  thiamethoxam content of the control strain: 0.0038 ng/OD
[1]; 100 mg/L thiamethoxam
  thiamethoxam content of the control strain: 0.011 ng/OD
[2]
  growth of transgenic strain (pYES2-BraPIP2;1) versus wild strain (pYES2) with thiamethoxam: grows significantly weaker than the wild strain
BraPIP2;1
  expression abundance of BraPIP2;1 in the roots and aboveground parts compared with the control: significantly increased
[3]
  main root length of the transgenic strain versus wild type: shorter than that of the wild type
[4]; 10 mg/L thiamethoxam
  thiamethoxam content of the recombinant strain: 0.0071 ng/OD
[4]; 100 mg/L thiamethoxam
  thiamethoxam content of the recombinant strain: 0.028 ng/OD
[5]
  thiamethoxam content of the roots and aboveground parts of the transgenic plant versus wild plant: higher than that of the wild plant
